Where two headings read alike, the source gives them in different places.
What was measured:
Assay type in all cases: cell-based
[1] = test system: HepG2 XBP1(u)-Luc cells; experiment: HepG2 XBP1 reporter assay; details: 6 h
Protocol: HepG2 hepatoma cells were transduced with a retrovirus encoding the cDNA for unspliced (u) XBP1, which contains a non-processed intron, fused to the cDNA for firefly luciferase. Upon induction of ER stress, the non-processed intron of XBP1(u) is spliced out by active IRE1alpha endonuclease. The resulting spliced (s) XBP1 is now in frame with luciferase which causes the production of active luciferase protein, resulting in bioluminescence
HepG2 XBP1(u)-Luc cells were plated […] Cultured cells with a stably transfected reporter construct were plated at approximately 30,000 cells per well into 96 well multi-well plates for twenty four hours. The testing compounds were then added to the wells in 3-fold serial dilutions using a twenty seven micromolar top concentration. A series of control wells for each cell type received only compound solvent. Six hours after the addition of compound, reporter activity for luciferase was assayed, by addition of the SteadyGlo luminescence reagent (Promega). The reporter luminescence activity was measured using Pherastar plate reader (BMG Labtech). Readings was normalized to DMSO only treated cells, and normalized activities were then used in the IC50 calculations. The HepG2 XBP1 reporter assay data are summarized in Table 47: A<0.6 μM; 0.6 μM≤B<2.0 μM; 2.0 μM≤C<10.0 μM; D≥10.0 μM.

[2] = test system: Colo-205 cells; experiment: Calcium flux assay (FLIPR Calcium 5); details: FLIPR Calcium 5, measured over 36 minutes
Protocol: Compounds described herein induced ER stress by causing intracellular calcium flux. Calcium flux was measured in Colo-205 cells using the FLTPR® Calcium 5 Assay Kit according to manufacter's protocol (Molecular Devices, Cat. #R8186) on a FLIPR3 system (Molecular Devices). Calcium flux is measured over 36 minutes. The Colo-205 calcium flux assay data are summarized in Table 47: A<0.6 μM; 0.6 μM≤B<2.0 μM; 2.0 μM≤C<10.0 μM; D≥10.0 μM.

[3] = test system: Hek293 empty vector; experiment: In vitro cell viability (CellTiter-Glo), Hek293 empty vector; details: read-out: Hek293 empty vector viability
Protocol: (§1) HEK293 (ATCC, catalog #CRL-1573) cells are plated in 10 cm dishes (Corning, product #430167) into 10 mL of complete DMEM cell culture media [DMEM (Life Technologies, product #11960-051) media supplemented with 10% FBS (Hyclone, catalog #SH30071.03), antimycotic/antibiotic (Life Technologies, product #15240-062), and Glutamax (Life Technologies, product #35050-061)] at 3×10^6 cells per dish. Cells are allowed to attach and grow overnight at 37° C. in humidified 5% CO2. Cells are co-transfected with pVSV-G, pCMV-Gag/Pol and pCLPCX_WFS1 using Fugene 6 (Promega, catalog #E2691) according to manufacturer's protocol. Separately, cells are co-transfected with pVSV-G, pCMV-Gag/Pol and pCLPCX to produce control retrovirus. Cell culture media containing retrovirus (viral supernatant) is collected at 48 and 72 hours following transfection, filtered through a 0.4 uM filter, and stored at −80° C.
(§2) HEK293 cells are plated in 6 well plates (Corning, product #3516) in 2 mL of complete DMEM cell culture media at 1×10^5 cells well and allowed to attach and grow overnight at 37° C. in humidified 5% CO2. The following day, the media is replaced with viral supernatant to which 10 ug/ml of Polybrene® (Santa Cruz Biotech, catalog #sc-134220) is added. Viral supernatant is replaced 24 hours later with complete DMEM media. Transduced cells are selected in complete DMEM cell culture media containing 1 microgram/mL of puromycin (Life Technologies, catalog #A1113803).
(§3) HEK293 cells containing empty pCLPCx vector (HEK293 empty), HEK293 cells stably over-expression WFS1 (HEK293 WFS1), HepG2, and HepG2 cells where WFS1 was depleted via CRISPR/Cas9 (HepG2 WFS1 KO) cells were plated into 96-well black plates (Corning, product #3904) in 100 microliters of complete DMEM cell culture media [DMEM (Life Technologies, product #11960-051) media supplemented with 10% FBS (Hyclone, catalog #SH30071.03), antimycotic/antibiotic (Life Technologies, product #15240-062), and Glutamax (Life Technologies, product #35050-061)] at 1,000 (HEK293) or 5,000 (HepG2) cells per well. Cells were allowed to attach and grow overnight, after which compounds are added at various concentrations. Cell viability was assessed 96 hrs after compound addition with CellTiter-Glo reagent (Promega, catalog #G7570) according to manufacturer's protocol and measurement on a Pherastar luminescence plate reader (BMG Labtech).
(§4) The IC50s for the viability of both the Hek293 empty vector and WFS1 over-expressing cells are summarized in Table 47: A<0.06 μM; 0.06 μM≤B<0.6 μM; 0.6 μM≤C<3.0 μM; D≥3.0 μM.

[4] = test system: Hek293 WFS1 over-expressor; experiment: In vitro cell viability (CellTiter-Glo), Hek293 WFS1 over-expressor; details: read-out: Hek293 WFS1 viability
Protocol: WFS1 cDNA is amplified from clone RC202901 (Origene Technologies) with primers 5′-TCCGCGGCCCCAAGCTTATCGCCATGGACTCCAACACTGC-3′ (SEQ ID NO: 1), 5′-GATGGGCCCAGATCTCGAGTCAGGCCGCCGACAGGAATG-3′ (SEQ ID NO: 2) and cloned into a retroviral mammalian expression vector pCLPCX using HD Infusion (CLONTECH) at Hind3-Xhol sites using standard procedures. The resulting clone is identified as pCLPCX_WFS1.
as §1, §2, §3, §4

[5] = Homo sapiens, HEK293, Hek293 WFS1 over-expressing cells

SMILES	IC50 ([1]; Homo sapiens) [nM]	EC50 ([2]; Homo sapiens, COLO 205, 0.6 h) [nM]	IC50 ([3]; Homo sapiens, HEK293) [nM]	IC50 [4, 5] [nM]	IC50 [1] [nM]	EC50 [2] [nM]	IC50 ([3]; Hek293 empty vector) [nM]	IC50 ([4]; Hek293 WFS1 over-expressing cells) [nM]
Cc1nc(N[C@H]2CC[C@H](Oc3ccc(C(F)(F)F)nc3)C2)nc2c1NC(=O)[C@H](C)N2C (single isomer, unassigned) [Compound 376]	600 to 2000	600 to 2000	≥ 3000	60 to 600	–	–	–	–
Cc1nc(N[C@H]2CC[C@H](Oc3ccc(C(F)(F)F)nc3)C2)nc2c1NC(=O)[C@H](C)N2C (single isomer, unassigned) [Compound 377]	–	–	–	–	600 to 2000	< 600	≥ 3000	< 60
COc1c(F)cc(Cn2cc(CNc3nc(C)c4c(n3)N(C)[C@@H](C)C(=O)N4)cn2)cc1F [Compound 46, (7S)-2-(((1-(3,5-difluoro-4-methoxybenzyl)-1H-pyrazol-4-yl)methyl)amino)-4,7,8-trimethyl-7,8-dihydropteridin-6(5H)-one]	–	< 600	≥ 3000	< 60	–	–	–	–
Cc1nc(NCc2cnn(Cc3ccc(F)nc3)c2)nc2c1NC(=O)[C@H](C)N2C [Compound 77]	–	600 to 2000	≥ 3000	60 to 600	–	–	–	–
Cc1nc(NCc2cnn(Cc3cccc(C(C)C)c3)c2)nc2c1NC(=O)[C@H](C)N2C [Compound 80, (7S)-2-(((1-(3-isopropylbenzyl)-1H-pyrazol-4-yl)methyl)amino)-4,7,8-trimethyl-7,8-dihydropteridin-6(5H)-one]	< 600	600 to 2000	≥ 3000	< 60	–	–	–	–
COc1cc(F)ccc1Cn1cc(CNc2nc(C)c3c(n2)N(C)[C@@H](C)C(=O)N3)cn1 [Compound 83, (7S)-2-(((1-(4-fluoro-2-methoxybenzyl)-1H-pyrazol-4-yl)methyl)amino)-4,7,8-trimethyl-7,8-dihydropteridin-6(5H)-one]	600 to 2000	< 600	≥ 3000	< 60	–	–	–	–
Cc1cc(F)ncc1Cn1cc(CNc2nc(C)c3c(n2)N(C)[C@@H](C)C(=O)N3)cn1 [Compound 94, (7S)-2-(((1-((6-fluoro-4-methylpyridin-3-yl)methyl)-1H-pyrazol-4-yl)methyl)amino)-4,7,8-trimethyl-7,8-dihydropteridin-6(5H)-one]	600 to 2000	600 to 2000	≥ 3000	< 60	–	–	–	–
Cc1nc(NCc2cnn(Cc3cc(F)c(F)c(F)c3)c2)nc2c1NC(=O)[C@H](C)N2C [Compound 122, (7S)-4,7,8-trimethyl-2-(((1-(3,4,5-trifluorobenzyl)-1H-pyrazol-4-yl)methyl)amino)-7,8-dihydropteridin-6(5H)-one]	< 600	< 600	≥ 3000	< 60	–	–	–	–
Cc1nc(NCc2cnn([C@H]3CCN(C4CCC(F)(F)CC4)C3)c2)nc2c1NC(=O)[C@H](C)N2C [Compound 142, (7S)-2-(((1-((S)-1-(4,4-difluorocyclohexyl)pyrrolidin-3-yl)-1H-pyrazol-4-yl)methyl)amino)-4,7,8-trimethyl-7,8-dihydropteridin-6(5H)-one]	600 to 2000	600 to 2000	≥ 3000	60 to 600	–	–	–	–
Cc1nc(NCc2ccc(-n3cc(C(F)(F)F)cn3)nc2)nc2c1NC(=O)[C@H](C)N2C [Compound 143, (S)-4,7,8-trimethyl-2-(((6-(4-(trifluoromethyl)-1H-pyrazol-1-yl)pyridin-3-yl)methyl)amino)-7,8-dihydropteridin-6(5H)-one]	2000 to 10000	2000 to 10000	≥ 3000	60 to 600	–	–	–	–
Cc1nc(NCc2cnn([C@@H]3C[C@@H]3c3ccc(F)cc3)c2)nc2c1NC(=O)[C@H](C)N2C [Compound 154, (7S)-2-(((1-((1R,2R)-2-(4-fluorophenyl)cyclopropyl)-1H-pyrazol-4-yl)methyl)amino)-4,7,8-trimethyl-7,8-dihydropteridin-6(5H)-one]	< 600	< 600	≥ 3000	< 60	–	–	–	–
Cc1nc(NCc2cnn(Cc3cc(C(F)(F)F)nn3C)c2)nc2c1NC(=O)[C@H](C)N2C [Compound 160, (7S)-4,7,8-trimethyl-2-(((1-((1-methyl-3-(trifluoromethyl)-1H-pyrazol-5-yl)methyl)-1H-pyrazol-4-yl)methyl)amino)-7,8-dihydropteridin-6(5H)-one]	< 600	600 to 2000	≥ 3000	< 60	–	–	–	–
Cc1ccc(Cn2cc(CNc3nc(C)c4c(n3)N(C)[C@@H](C)C(=O)N4)cn2)cn1 [Compound 173, (7S)-4,7,8-trimethyl-2-(((1-((6-methylpyridin-3-yl)methyl)-1H-pyrazol-4-yl)methyl)amino)-7,8-dihydropteridin-6(5H)-one]	2000 to 10000	2000 to 10000	≥ 3000	60 to 600	–	–	–	–
Cc1nc(NCc2cnn([C@@H](C)c3ccc(C(F)(F)F)nc3)c2)nc2c1NC(=O)[C@H](C)N2C [Compound 174, (7S)-4,7,8-Trimethyl-2-(((1-((S)-1-(6-(trifluoromethyl)pyridin-3-yl)ethyl)-1H-pyrazol-4-yl)methyl)amino)-7,8-dihydropteridin-6(5H)-one]	600 to 2000	600 to 2000	≥ 3000	< 60	–	–	–	–
CC[C@H]1C(=O)Nc2c(C)nc(NCc3cnn(Cc4ccc(C(F)(F)F)nc4)c3)nc2N1C [Compound 186, (7S)-7-ethyl-4,8-dimethyl-2-(((1-((6-(trifluoromethyl)pyridin-3-yl)methyl)-1H-pyrazol-4-yl)methyl)amino)-7,8-dihydropteridin-6(5H)-one]	< 600	600 to 2000	≥ 3000	< 60	–	–	–	–
Cc1nc(N[C@H]2C[C@H](Oc3cc(F)c(F)c(F)c3)C2)nc2c1NC(=O)[C@H](C)N2C [Compound 246, (7S)-4,7,8-trimethyl-2-((trans-3-(3,4,5-trifluorophenoxy)cyclobutyl)amino)-7,8-dihydropteridin-6(5H)-one]	–	≥ 10000	≥ 3000	< 60	–	–	–	–
Cc1nc(N[C@H]2C[C@H](Oc3ccc(F)cc3)C2)nc2c1N(C)C(=O)[C@H](C)N2C [Compound 250, (7S)-2-((trans-3-(4-fluorophenoxy)cyclobutyl)amino)-4,5,7,8-tetramethyl-7,8-dihydropteridin-6(5H)-one]	–	600 to 2000	≥ 3000	60 to 600	–	–	–	–
